The record followed here is PubChem BioAssay AID256 (DTP/NCI, 2004).

This test deals with CD2F1 mice, L1210 leukemia ip, survival T/C. In words: NCI In Vivo Anticancer Drug Screen. Data for tumor model L1210 Leukemia (intraperitoneal) in CD2F1 (CDF1) mice. The settings on record: endpoint: mean survival time, higher = longer survival. A digest of the protocol: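 Implant tumor; dose compound or vehicle; measure endpoint in both groups; report treated divided by control.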

[1] abbreviates: dose: 100.0 mg/kg/injection, schedule: Q01DX009 (ip), vehicle: saline with Tween-80.
Where [2] appears, read: dose: 200.0 mg/kg/injection, schedule: Q01DX009 (ip), vehicle: saline with Tween-80.
Setting [3] is: dose: 400.0 mg/kg/injection, schedule: Q01DX009 (ip), vehicle: saline with Tween-80.
[4] abbreviates: dose: 50.0 mg/kg/injection, schedule: Q01DX009 (ip), vehicle: saline with Tween-80.
The mark [5] stands for this setting: dose: 6.25 mg/kg/injection, schedule: Q01DX009 (ip), vehicle: saline with Tween-80.
Where [6] appears, read: dose: 12.5 mg/kg/injection, schedule: Q01DX009 (ip), vehicle: saline with Tween-80.
The mark [7] stands for this setting: dose: 100.0 mg/kg/injection, schedule: Q04DX003 (ip), vehicle: saline with Tween-80.
Setting [8] is: dose: 200.0 mg/kg/injection, schedule: Q04DX003 (ip), vehicle: saline with Tween-80.
Where [9] appears, read: dose: 100.0 mg/kg/injection, schedule: Q01DX001 (ip), vehicle: saline with Tween-80.
[10] abbreviates: dose: 200.0 mg/kg/injection, schedule: Q01DX001 (ip), vehicle: saline with Tween-80.
[11] abbreviates: dose: 400.0 mg/kg/injection, schedule: Q01DX001 (ip), vehicle: saline with Tween-80.
[12] abbreviates: dose: 25.0 mg/kg/injection, schedule: Q01DX009 (ip), vehicle: saline with Tween-80.
The mark [13] stands for this setting: dose: 100.0 mg/kg/injection, schedule: Q04DX003 (ip), vehicle: Klucel (hydroxypropylcellulose) (HPC).
Where [14] appears, read: dose: 200.0 mg/kg/injection, schedule: Q04DX003 (ip), vehicle: Klucel (hydroxypropylcellulose) (HPC).
Setting [15] is: dose: 400.0 mg/kg/injection, schedule: Q04DX003 (ip), vehicle: Klucel (hydroxypropylcellulose) (HPC).
The mark [16] stands for this setting: dose: 400.0 mg/kg/injection, schedule: Q04DX003 (ip), vehicle: saline with Tween-80.

Values joined by “and” are separate entries in the source; they are usually repeats but may differ in a detail not shown here. Equal entries are not always repeated. Toxic doses and inconclusive results are not listed.

In the case of `O=C(CNC(=O)c1ccccc1)N/N=C/Cc1ccccc1`, the T/C reads like this: under setting [1], 97 % of control; under setting [2], 104 % of control; under setting [3], 104 % of control.

`O=C(O)c1ccccc1C(c1ccccc1)c1ccccc1`: the T/C was 94 % of control under setting [4] and 94 % of control under setting [1].

As to `S=C(Nc1ccccc1)N1CCCC1`, the T/C is, setting by setting: under setting [4], 96 % of control; under setting [1], 100 % of control; under setting [2], 102 % of control.

Consider `N#C/C(N)=C(\C#N)N=C1OCC(O)C(O)C1O` (configuration not stated), for which the T/C (dose: 12.5 mg/kg/injection, schedule: Q01DX005 (ip), vehicle: other) is 102 % of control; the T/C (dose: 25.0 mg/kg/injection, schedule: Q01DX005 (ip), vehicle: other) is 101 % of control; the T/C (dose: 50.0 mg/kg/injection, schedule: Q01DX005 (ip), vehicle: other) is 98 % of control; the T/C (dose: 100.0 mg/kg/injection, schedule: Q01DX005 (ip), vehicle: other) was 106 % of control; the T/C (dose: 200.0 mg/kg/injection, schedule: Q01DX005 (ip), vehicle: other) is 112 % of control.

Turning to `N#CCc1ccccc1-c1ccccc1CC#N`, the T/C by setting is: (dose: 5.0 mg/kg/injection, schedule: Q01DX001 (ip), vehicle: other) 106 % of control; (dose: 10.0 mg/kg/injection, schedule: Q01DX001 (ip), vehicle: other) 100 % of control; (dose: 20.0 mg/kg/injection, schedule: Q01DX001 (ip), vehicle: other) 96 % of control; (dose: 40.0 mg/kg/injection, schedule: Q01DX001 (ip), vehicle: other) 104 % of control.

On to `NC(N)=Nc1nc(N)nc(N)n1`, for which the T/C (dose: 3.13 mg/kg/injection, schedule: Q01DX009 (ip), vehicle: saline with Tween-80) was 104 % of control; the T/C under setting [5] was 107 % of control; the T/C under setting [6] is 104 % of control and 110 % of control.

For the compound `CN(C)c1ccc2nc3ccc(=O)cc-3sc2c1`, the T/C by setting is: (dose: 100.0 mg/kg/injection, schedule: Q01DX009 (ip), vehicle: Klucel (hydroxypropylcellulose) (HPC)) 98 % of control; (dose: 200.0 mg/kg/injection, schedule: Q01DX009 (ip), vehicle: Klucel (hydroxypropylcellulose) (HPC)) 101 % of control; (dose: 400.0 mg/kg/injection, schedule: Q01DX009 (ip), vehicle: Klucel (hydroxypropylcellulose) (HPC)) 103 % of control.

With `CC1C[C@@H](O)C(NC(=O)N(CCCl)N=O)[C@@H](O)C1` (some centres not stated), the T/C was 191 % of control (dose: 6.0 mg/kg/injection, schedule: Q01DX001 (ip), vehicle: saline); 367 % of control (dose: 9.0 mg/kg/injection, schedule: Q01DX001 (ip), vehicle: saline); 297 % of control (dose: 13.0 mg/kg/injection, schedule: Q01DX001 (ip), vehicle: saline); 500 % of control (dose: 20.0 mg/kg/injection, schedule: Q01DX001 (ip), vehicle: saline); 298 % of control (dose: 30.0 mg/kg/injection, schedule: Q01DX001 (ip), vehicle: saline).

In the case of `CN(C)CCSCC(=O)N1c2ccccc2Sc2ccc(Cl)cc21`, the T/C is, setting by setting: under setting [4], 103 % of control; under setting [1], 101 % of control; under setting [7], 98 % of control; under setting [8], 98 % of control.

Regarding `O=C(Cl)C1CCCCC1`, the T/C runs as follows: under setting [9], 93 % of control; under setting [10], 97 % of control; under setting [11], 89 % of control.

Regarding `CN(C)C1c2ccccc2-c2ccc(NC(=O)C(F)(F)F)cc21` (configuration not stated), the T/C was 107 % of control (dose: 50.0 mg/kg/injection, schedule: Q01DX001 (ip), vehicle: carboxymethylcellulose (CMC)); 92 % of control (dose: 100.0 mg/kg/injection, schedule: Q01DX001 (ip), vehicle: carboxymethylcellulose (CMC)); 95 % of control (dose: 200.0 mg/kg/injection, schedule: Q01DX001 (ip), vehicle: carboxymethylcellulose (CMC)); 113 % of control (dose: 400.0 mg/kg/injection, schedule: Q01DX001 (ip), vehicle: carboxymethylcellulose (CMC)).

As to `O=C(O)c1c2c(nc3ccccc13)-c1ccccc1C1(CCCC1)C2`, the T/C was 92 % of control under setting [7] and 99 % of control under setting [8].

In the case of `CN(C)CCCN=Cc1cc(Cl)ccc1O.CN(C)CCCN=Cc1cc(Cl)ccc1O.[Ni+2]`, the T/C runs as follows: under setting [5], 93 % of control; under setting [6], 93 % of control; under setting [12], 100 % of control.

For `COc1ccc(C(Cn2ccnc2)Sc2ccc(Cl)c(Cl)c2)cc1` (configuration not stated), the T/C is 96 % of control and 103 % of control under setting [5]; 103 % of control and 104 % of control under setting [6]; 98 % of control and 101 % of control under setting [12]; 96 % of control and 108 % of control under setting [4]; 101 % of control and 105 % of control under setting [1].

On to `OC(CI)C1OCOC2COCOC21` (configuration not stated), for which the T/C reads like this: under setting [13], 102 % of control; under setting [14], 94 % of control; under setting [15], 97 % of control.

Regarding `O=c1[nH]c2ccccc2[nH]1`, the T/C was 100 % of control under setting [7], 95 % of control under setting [8] and 103 % of control under setting [16].

On to `CCCc1nc(/N=N/N(C)C)c(C(N)=O)[nH]1`, for which the T/C (dose: 75.0 mg/kg/injection, schedule: Q01DX001 (ip), vehicle: saline) is 114 % of control; the T/C (dose: 150.0 mg/kg/injection, schedule: Q01DX001 (ip), vehicle: saline) is 120 % of control; the T/C (dose: 300.0 mg/kg/injection, schedule: Q01DX001 (ip), vehicle: saline) is 122 % of control.

Turning to `COP(=O)(NC(C)=O)OC`, the T/C (dose: 50.0 mg/kg/injection, schedule: Q04DX002 (ip), vehicle: saline) was 87 % of control; the T/C (dose: 100.0 mg/kg/injection, schedule: Q04DX002 (ip), vehicle: saline) is 93 % of control; the T/C (dose: 200.0 mg/kg/injection, schedule: Q04DX002 (ip), vehicle: saline) is 93 % of control; the T/C (dose: 400.0 mg/kg/injection, schedule: Q04DX002 (ip), vehicle: saline) is 96 % of control.

As for `NC(=O)c1cn(C2OC(CO)C(O)C2O)c2ncn3ncnc3c12` (configuration not stated), the T/C is 113 % of control (dose: 3.13 mg/kg/injection, schedule: Q01DX005 (ip), vehicle: water); 112 % of control (dose: 6.25 mg/kg/injection, schedule: Q01DX005 (ip), vehicle: water); 116 % of control (dose: 12.5 mg/kg/injection, schedule: Q01DX005 (ip), vehicle: water); 98 % of control (dose: 50.0 mg/kg/injection, schedule: Q01DX005 (ip), vehicle: water).

For the compound `Cc1cccc(C(=O)OCCBr)c1`, where the note is “dose: 75.0 mg/kg/injection, schedule: Q01DX009 (ip), vehicle: saline with Tween-80”, the T/C was 102 % of control.

With `CCOC(NCc1ccc(OC)c(OC)c1)OCC`, the T/C reads like this: (dose: 100.0 mg/kg/injection, schedule: Q01DX001 (ip), vehicle: saline) 98 % of control; (dose: 200.0 mg/kg/injection, schedule: Q01DX001 (ip), vehicle: saline) 98 % of control.

Regarding `O=C(c1ccccc1)C(c1ccccc1)C(SCc1ccccc1)c1ccccc1` (configuration not stated), the T/C under setting [9] is 88 % of control; the T/C under setting [1] is 94 % of control; the T/C under setting [10] was 90 % of control; the T/C under setting [2] was 100 % of control; the T/C under setting [11] is 98 % of control; the T/C under setting [3] is 103 % of control.

Turning to `O=C=N/C=C/NC(=O)Nc1cccc(Cl)c1`, the T/C is, setting by setting: (dose: 100.0 mg/kg/injection, schedule: Q04DX002 (ip), vehicle: saline with Tween-80) 104 % of control; (dose: 200.0 mg/kg/injection, schedule: Q04DX002 (ip), vehicle: saline with Tween-80) 93 % of control; (dose: 400.0 mg/kg/injection, schedule: Q04DX002 (ip), vehicle: saline with Tween-80) 101 % of control.

Regarding `CCOC(=O)C(CC)CO` (configuration not stated), the T/C is, setting by setting: (dose: 100.0 mg/kg/injection, schedule: Q04DX003 (ip), vehicle: saline) 105 % of control; (dose: 200.0 mg/kg/injection, schedule: Q04DX003 (ip), vehicle: saline) 103 % of control; (dose: 400.0 mg/kg/injection, schedule: Q04DX003 (ip), vehicle: saline) 103 % of control.

In the case of `c1cc2c3c(c1)-c1nc4ccccc4cc1CN3CCC2`, the T/C is, setting by setting: under setting [7], 98 % of control; under setting [8], 101 % of control; under setting [16], 97 % of control.

For `CCOC(=O)/C=C/c1ccc(O)cc1`, the T/C reads like this: under setting [13], 102 % of control; under setting [14], 98 % of control; under setting [15], 98 % of control.
